The source of these data is ChEMBL document CHEMBL1146299, “Molecular modeling of binding between amidinobenzisothiazoles, with antidegenerative activity on cartilage, and matrix metalloproteinase-3” (Bioorg Med Chem, 2007).

This series can be described thus: Dissociation constant, pKa of the compound. Format: physicochemical.
On to `CC(=N)Nc1nsc2ccccc12`, for which the pKa worked out at 6.99.
For `N=C(Nc1nsc2ccccc12)c1ccc(Cl)cc1` the value was 4.84; for `N=C(Nc1nsc2ccccc12)c1ccccc1`, 5.4.
